Legend:
[1] = test system: HIV-1JR-FL Env on virions; experiment: Single-molecule FRET of virion Env; settings: saturating concentration (100 μM)
Protocol: Single-molecule fluorescence resonance energy transfer (smFRET): Viruses with HIV-1JR-FL Env that is double-tagged at V1-Q3 and V4-A1 were prepared for smFRET imaging, as described in Munro, Science 346, 759-763 (2014). The high (40:1) ratio of wild-type Env to tagged Env ensures that, on average, only one tagged protomer is available for imaging on a single virus particle. The Q3 and A1 double-tagged viruses allowed the incorporation of Cy3B and Cy5 fluorescent labels, respectively. Thus, the relative movements of the V1 and V4 regions in one gp120 subunit of an individual Env trimer could be monitored in real time. The smFRET images were acquired on an in-house-built total internal reflection fluorescent microscope, as described in Munro. HIV-1JR-FL viruses incubated with saturating concentrations (100 μM) of AEG-II-168 or control HIV-1JR-FL viruses without compound were used for smFRET imaging. Data were analyzed with the customized MATLAB (Mathworks) program SPARTAN as described in Juette, Nat Methods 13, 341-344 (2016). FRET trajectories meeting the criteria of quality (sufficient signal:noise ratio, single dye photobleaching, anti-correlated features between donor and acceptor intensity and fluorescence lifetime) were compiled into FRET histograms. Hidden Markov modeling was used to fit the FRET histograms with the sum of three Gaussian distributions. […]

VLP HIV-1AD8 Env = experiment: Antibody recognition of VLP-associated Env
Protocol: Characterization of VLP-associated Env: To prepare VLPs with HIV-1AD8 Env, 150-mm dishes of 30-40% confluent A549-Gag/Env cells were seeded and, on the following day, treated with 2 μg/ml doxycycline. Approximately 72 hours after induction, cell supernatants were harvested and cleared by low-speed centrifugation (500×g for 15 minutes at 4° C.) and 0.45-μ filtration. VLPs were pelleted by centrifugation at 100,000×g for one hour at 4° C. The resuspended VLP preparation was clarified by low-speed centrifugation. BMS-806 and compounds described herein were added to the clarified VLP-containing suspensions. In some cases, the VLP-compound mixtures were irradiated with a 100-watt, 365-nm ultraviolet (UV) lamp for 10 minutes at room temperature. For all UV studies, exposure of the samples to visible light was minimized.
For studies of the binding of ligands (antibodies, CD4-Ig and C34-Ig) to detergent-solubilized VLP Env, VLPs prepared as described above were pelleted (20,000×g for 30 minutes at 4° C.). The pellet was incubated with 1.5% Triton X-100 for 30 minutes at 4° C. The VLP lysates were centrifuged (20,000×g for 30 minutes at 4° C.) and the supernatants were incubated with ligands (10 μg/ml) in a 50-μl volume with 25 mg/ml of Protein A-Sepharose beads for one hour at 4° C. The beads were pelleted (1000 rpm for 1 minute at room temperature), washed three times with 1 ml wash buffer with 1% Triton X-100, suspended in LDS Sample Buffer and analyzed by Western blot, as described above.
In a second assay format, the effect of the compounds was analyzed on the binding of antibodies to Env on intact VLPs, in the absence of detergent. In this case, VLPs in A549-Gag/Env supernatants, clarified as described above, were pelleted at 100,000×g for one hour at 4° C. The pellet was resuspended in PBS and the VLPs pelleted at 20,000×g for 30 minutes at 4° C. The VLPs were resuspended in PBS and incubated with antibodies (10 μg/ml) in a 100-μl volume for one hour at 4° C. The VLPs were then pelleted (20,000×g for 30 minutes at 4° C.) and washed with PBS three times. The VLP pellet was then solubilized in 1.5% Triton X-100 for 30 minutes at 4° C., after which the VLP lysates were clarified by centrifugation at 20,000×g for 30 minutes at 4° C. The supernatants were incubated with 50 μl of Protein A-Sepharose beads for one hour at 4° C. The beads were pelleted (1000 rpm for 1 minute at room temperature), washed three times with 1 ml wash buffer with 1% Triton X-100, suspended in LDS Sample Buffer, and analyzed by Western blot, as described above.

[2] = test system: cell-surface HIV-1AD8 Env (A549-Env cells); experiment: Immunoprecipitation of cell-surface Env by antibody panel; assay type: cell-based; settings: 10 μM
Protocol: Immunoprecipitation of cell-surface Env: Doxycycline-induced A549-Env cells were washed twice with washing buffer (1×PBS+5% FBS), with or without 10 μM BMS-806 or compounds described herein. The cells were then incubated with 5 μg/ml antibody for one hour at 4° C. in the continued presence or absence of the compounds described herein. After washing four times in washing buffer, the cells were lysed in NP-40 lysis buffer (0.5% NP-40, 0.5 M NaCl, 10 mM Tris, pH 7.5) for five minutes at 4° C. with gentle agitation. Unless specifically indicated otherwise, compounds described herein were not added to the NP-40 lysis buffer. The lysates were cleared by centrifugation at 13,200×g for 20 minutes at 4° C., and the clarified supernatants were incubated with Protein A-Sepharose beads (50 μl of 25 mg/ml in PBS per sample) for one hour at room temperature. The beads were pelleted (1000 rpm×1 min) and washed three times with final wash buffer (200 mM Tris-HCl, pH 8.0, 100 mM (NH4)2SO4, 1 M NaCl and 0.1% NP-40). The beads were suspended in LDS sample buffer, boiled and analyzed by Western blotting using 1:2000 goat anti-gp120 polyclonal antibody (ThermoFisher) and 1:2000 HRP-conjugated rabbit anti-goat IgG (ThermoFisher). The transmembrane Env was analyzed by Western blot with the 4E10 anti-gp41 antibody and HRP-conjugated goat anti-human IgG (Santa Cruz).

[3] = test system: monomeric soluble HIV-1AD8 gp120; experiment: Antibody recognition of monomeric gp120; assay type: binding; settings: 10 μM; CD4-Ig, CD4BS bNAbs, 17b
Protocol: Antibody recognition of monomeric gp120: To produce gp120 monomers, a stop codon was introduced into the HIV-1AD8 env gene sequence encoding the gp120-gp4l junction. […] The supernatants were clarified by low-speed centrifugation and 0.45-μ filtration, and then used for precipitation by antibodies in the absence or presence of 10 μM BMS-806. Precipitates were Western blotted with a goat anti-gp120 polyclonal antibody (ThermoFisher) and 1:3000 HRP-conjugated rabbit anti-goat IgG antibody (ThermoFisher).

Row | SMILES | Virion Env conformational state by smFRET [1] | VLP Env recognition by poorly neutralizing antibodies two weeks after treatment (VLP HIV-1AD8 Env; compound plus UV irradiation, washed, two weeks without compound) | VLP Env recognition by bNAbs two weeks after treatment (VLP HIV-1AD8 Env; compound plus UV irradiation, PG9, PGT145, PGT151, 35022, 2F5, 4E10, 10E8) | Recognition of cell-surface Env by poorly neutralizing antibodies ([2]; 17b, 19b, 902090, F105) | Binding of bNAbs to mature cell-surface gp120 ([2]; PG9, PG16, PGT145, PGT151, 35022) | Recognition of VLP Env by poorly neutralizing antibodies (VLP HIV-1AD8 Env) | Recognition of mature VLP gp120 Env by quaternary-epitope bNAbs (VLP HIV-1AD8 Env; PG9, PG16, PGT145, PGT151, 35O22) | Ligand binding to monomeric gp120 [3]
1 | COc1ccc(-c2ccc(CNC(=O)c3c(F)c(F)c(N=[N+]=[N-])c(F)c3F)o2)c2[nH]cc(C(=O)C(=O)N3CCN(C(=O)c4ccccc4)CC3)c12 [AEG-II-168] | maintained a State-1-dominant conformation | lowered Env recognition by poorly neutralizing antibodies | increased recognition by several bNAbs | – | – | – | – | –
2 | COc1ccnc2[nH]cc(C(=O)C(=O)N3CCN(C(=O)c4ccccc4)C[C@H]3C)c12 [BMS-806, reference compound] | – | – | – | decreased the recognition of the uncleaved Env | increased the binding of some bNAbs | reduced recognition of the uncleaved Env | enhanced the recognition of the mature gp120 Env | mildly decreased gp120 binding

From US12729194B2, “Compounds for the treatment of human immunodeficiency virus” (priority 2019, dated 2026)
